Converted amounts (≈) assume the structure as drawn.
Target: Clitocybe nebularis lectin (CNL) (Clitocybe nebularis, UniProt B2ZRS9)
Experiment: hemagglutination inhibition assay, human group A erythrocytes
Settings: CNL 18.6 µg/ml; 20 mM Tris/HCl, 130 mM NaCl, pH 7.5; room temperature

Sequence of Clitocybe nebularis lectin (CNL) (B2ZRS9 2-149): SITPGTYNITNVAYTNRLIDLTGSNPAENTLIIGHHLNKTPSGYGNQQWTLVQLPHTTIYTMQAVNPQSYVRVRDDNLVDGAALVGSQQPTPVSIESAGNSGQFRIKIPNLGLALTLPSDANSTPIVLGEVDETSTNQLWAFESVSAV

OC[C@H]1O[C@@H](O[C@H]2[C@H](O)[C@@H](O)C(O)O[C@@H]2CO)[C@H](O)[C@@H](O)[C@H]1O (stereo partly shown) [lactose]
minimum inhibitory concentration: 4.65 mM (≈ 1590 µg/mL)

Source: PMC2778273 (Biochimica et biophysica acta, 2008)
